Key:
Format in all cases: cell-based
[1] = test system: third stage larvae of Haemonchus contortus; assay: Haemonchus contortus L3 (HcL3) Assay; conditions: 96 h, read-out: HcL3 Minimum Effective Dose (MED)
[2] = test system: 4th stage larvae (L4) of Dirofilaria immitis; assay: Dirofilaria immitis, L4 Stage (DiL4) In Vitro Assay; conditions: Dirofilaria immitis, 72 h, read-out: DiL4 Minimum Effective Dose (MED), approximately 72 hours incubation; L4 larvae assessed for survival or paralysis
[3] = test system: microfilariae of Dirofilaria immitis; assay: Dirofilaria immitis, Microfilaria (DiMF) In vitro Assay; conditions: 72 h, read-out: DiMF Minimum Effective Dose (MED), approximately 72 hours incubation, microfilariae assessed for survival or paralysis

CC(C)C[C@H]1C(=O)O[C@H](Cc2ccc(Cn3nccc3Br)cc2)C(=O)N(C)[C@@H](CC(C)C)C(=O)O[C@H](C)C(=O)N(C)[C@@H](CC(C)C)C(=O)O[C@H](Cc2ccc(Cn3ccc(Br)n3)cc2)C(=O)N(C)[C@@H](CC(C)C)C(=O)O[C@H](C)C(=O)N1C [Example 1a-31, (3S,6R,9S,12R,15S,18R,21S,24R)-6-(4-((3-bromo-1H-pyrazol-1-yl)methyl)benzyl)-18-(4-((5-bromo-1H-pyrazol-1-yl)methyl)benzyl)-3,9,15,21-tetraisobutyl-4,10,12,16,22,24-hexamethyl-1,7,13,19-tetraoxa-4,10,16,22-tetraazacyclotetracosan-2,5,8,11,14,17,20,23-octaone] showed a minimal effective concentration [1] of 1 to 10 µM, a minimal effective concentration [2] of 0.0001 to 0.001 µM and a minimal effective concentration [3] of 0.01 to 0.1 µM.

CC(C)C[C@H]1C(=O)O[C@H](Cc2ccc(Cn3cc(Cl)cn3)cc2)C(=O)N(C)[C@@H](CC(C)C)C(=O)O[C@H](C)C(=O)N(C)[C@@H](CC(C)C)C(=O)O[C@H](Cc2ccc(Cn3cc(Cl)cn3)cc2)C(=O)N(C)[C@@H](CC(C)C)C(=O)O[C@H](C)C(=O)N1C [Example 1b-35, (3S,6R,9S,12R,15S,18R,21S,24R)-6,18-bis(4-((4-chloro-1H-pyrazol-1-yl)methyl)benzyl)-3,9,15,21-tetraisobutyl-4,10,12,16,22,24-hexamethyl-1,7,13,19-tetraoxa-4,10,16,22-tetraazacyclotetracosan-2,5,8,11,14,17,20,23-octaone] was tested, and the minimal effective concentration [1] was 10 to 100 µM, the minimal effective concentration [2] was 0.0001 to 0.001 µM and the minimal effective concentration [3] was 0.001 to 0.01 µM.

For CC(C)C[C@H]1C(=O)O[C@H](Cc2ccc(Cn3cc(I)cn3)cc2)C(=O)N(C)[C@@H](CC(C)C)C(=O)O[C@H](C)C(=O)N(C)[C@@H](CC(C)C)C(=O)O[C@H](Cc2ccc(Cn3cc(I)cn3)cc2)C(=O)N(C)[C@@H](CC(C)C)C(=O)O[C@H](C)C(=O)N1C [Example 1b-46, (3S,6R,9S,12R,15S,18R,21S,24R)-6,18-bis(4-((4-iodo-1H-pyrazol-1-yl)methyl)benzyl)-3,9,15,21-tetraisobutyl-4,10,12,16,22,24-hexamethyl-1,7,13,19-tetraoxa-4,10,16,22-tetraazacyclotetracosan-2,5,8,11,14,17,20,23-octaone], the minimal effective concentration [1] was 1 to 10 µM, the minimal effective concentration [2] was 0.0001 to 0.001 µM and the minimal effective concentration [3] was 0.001 to 0.01 µM.

For CC(C)C[C@H]1C(=O)O[C@H](Cc2ccc(Cn3nc(C(F)F)cc3C(F)F)cc2)C(=O)N(C)[C@@H](CC(C)C)C(=O)O[C@H](C)C(=O)N(C)[C@@H](CC(C)C)C(=O)O[C@H](Cc2ccc(Cn3nc(C(F)F)cc3C(F)F)cc2)C(=O)N(C)[C@@H](CC(C)C)C(=O)O[C@H](C)C(=O)N1C [Example 1b-89, (3S,6R,9S,12R,15S,18R,21S,24R)-6,18-bis(4-((3,5-bis(difluoromethyl)-1H-pyrazol-1-yl)methyl)benzyl)-3,9,15,21-tetraisobutyl-4,10,12,16,22,24-hexamethyl-1,7,13,19-tetraoxa-4,10,16,22-tetraazacyclotetracosan-2,5,8,11,14,17,20,23-octaone], the minimal effective concentration [1] was no more than 1 µM, the minimal effective concentration [2] was no more than 0.0001 µM and the minimal effective concentration [3] was 0.001 to 0.01 µM.

For CC#Cc1cnn(Cc2ccc(C[C@H]3OC(=O)[C@H](CC(C)C)N(C)C(=O)[C@@H](C)OC(=O)[C@H](CC(C)C)N(C)C(=O)[C@@H](Cc4ccc(Cn5cc(C#CC)cn5)cc4)OC(=O)[C@H](CC(C)C)N(C)C(=O)[C@@H](C)OC(=O)[C@H](CC(C)C)N(C)C3=O)cc2)c1 [Example 1b-118, (3S,6R,9S,12R,15S,18R,21S,24R)-3,9,15,21-tetraisobutyl-4,6,10,16,18,22-hexamethyl-12,24-bis(4-((4-(prop-1-yn-1-yl)-1H-pyrazol-1-yl)methyl)benzyl)-1,7,13,19-tetraoxa-4,10,16,22-tetraazacyclotetracosan-2,5,8,11,14,17,20,23-octaone], the minimal effective concentration [1] was 1 to 10 µM, the minimal effective concentration [2] was 0.0001 to 0.001 µM and the minimal effective concentration [3] was 0.001 to 0.01 µM.

For CCC#Cc1cnn(Cc2ccc(C[C@H]3OC(=O)[C@H](CC(C)C)N(C)C(=O)[C@@H](C)OC(=O)[C@H](CC(C)C)N(C)C(=O)[C@@H](Cc4ccc(Cn5cc(C#CCC)cn5)cc4)OC(=O)[C@H](CC(C)C)N(C)C(=O)[C@@H](C)OC(=O)[C@H](CC(C)C)N(C)C3=O)cc2)c1 [Example 1b-119, (3S,6R,9S,12R,15S,18R,21S,24R)-6,18-bis(4-((4-(but-1-yn-1-yl)-1H-pyrazol-1-yl)methyl)benzyl)-3,9,15,21-tetraisobutyl-4,10,12,16,22,24-hexamethyl-1,7,13,19-tetraoxa-4,10,16,22-tetraazacyclotetracosan-2,5,8,11,14,17,20,23-octaone], the minimal effective concentration [1] was 10 to 100 µM, the minimal effective concentration [2] was no more than 0.0001 µM and the minimal effective concentration [3] was 0.001 to 0.01 µM.

In the case of CC(C)C[C@H]1C(=O)O[C@H](Cc2ccc(Cn3nccc3C(C)C)cc2)C(=O)N(C)[C@@H](CC(C)C)C(=O)O[C@H](C)C(=O)N(C)[C@@H](CC(C)C)C(=O)O[C@H](Cc2ccc(Cn3nccc3C(C)C)cc2)C(=O)N(C)[C@@H](CC(C)C)C(=O)O[C@H](C)C(=O)N1C [Example 1b-126, (3S,6R,9S,12R,15S,18R,21S,24R)-3,9,15,21-tetraisobutyl-6,18-bis(4-((5-isopropyl-1H-pyrazol-1-yl)methyl)benzyl)-4,10,12,16,22,24-hexamethyl-1,7,13,19-tetraoxa-4,10,16,22-tetraazacyclotetracosan-2,5,8,11,14,17,20,23-octaone], the minimal effective concentration [1] is reported as 1 to 10 µM, the minimal effective concentration [2] is reported as 0.0001 to 0.001 µM and the minimal effective concentration [3] is reported as 0.001 to 0.01 µM.

In the case of CC(C)C[C@H]1C(=O)O[C@H](Cc2ccc(Cn3nccc3C(C)(C)C)cc2)C(=O)N(C)[C@@H](CC(C)C)C(=O)O[C@H](C)C(=O)N(C)[C@@H](CC(C)C)C(=O)O[C@H](Cc2ccc(Cn3nccc3C(C)(C)C)cc2)C(=O)N(C)[C@@H](CC(C)C)C(=O)O[C@H](C)C(=O)N1C [Example 1b-127, (3S,6R,9S,12R,15S,18R,21S,24R)-6,18-bis(4-((5-(tert-butyl)-1H-pyrazol-1-yl)methyl)benzyl)-3,9,15,21-tetraisobutyl-4,10,12,16,22,24-hexamethyl-1,7,13,19-tetraoxa-4,10,16,22-tetraazacyclotetracosan-2,5,8,11,14,17,20,23-octaone], the minimal effective concentration [1] is reported as 1 to 10 µM, the minimal effective concentration [2] is reported as 0.001 to 0.01 µM and the minimal effective concentration [3] is reported as 0.01 to 0.1 µM.

In the case of CC(C)C[C@H]1C(=O)O[C@H](Cc2ccc(Cn3nccc3C3CCC3)cc2)C(=O)N(C)[C@@H](CC(C)C)C(=O)O[C@H](C)C(=O)N(C)[C@@H](CC(C)C)C(=O)O[C@H](Cc2ccc(Cn3nccc3C3CCC3)cc2)C(=O)N(C)[C@@H](CC(C)C)C(=O)O[C@H](C)C(=O)N1C [Example 1b-129, (3S,6R,9S,12R,15S,18R,21S,24R)-6,18-bis(4-((5-cyclobutyl-1H-pyrazol-1-yl)methyl)benzyl)-3,9,15,21-tetraisobutyl-4,10,12,16,22,24-hexamethyl-1,7,13,19-tetraoxa-4,10,16,22-tetraazacyclotetracosan-2,5,8,11,14,17,20,23-octaone], the minimal effective concentration [1] is reported as 1 to 10 µM, the minimal effective concentration [2] is reported as 0.0001 to 0.001 µM and the minimal effective concentration [3] is reported as 0.01 to 0.1 µM.

Reference: patent US11331369B2, “Endoparasitic depsipeptides” (Zoetis Services LLC, priority 2017, dated 2022)
